Results: patent publication US20240208992A1, “MACROCYCLES AS CFTR MODULATORS” (Idorsia Pharmaceuticals Ltd, priority 2021, published 2024)

Target: human F508del-CFTR (Homo sapiens, UniProt P13569, DEL508-508)
Test: F508del-CFTR cell surface expression (corrector activity), DiscoveRx ß-galactosidase complementation chemiluminescence assay in recombinant U2OS cell line;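 further: U2OS cells co-expressing ProLink-tagged F508del-CFTR and a membrane-anchored enzyme acceptor, where more surface CFTR restores β-galactosidase activity measured by chemiluminescence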
Details: for EC50: EC50, F508del-CFTR cell surface expression, U2OS cells, 16h compound incubation, geomean values; for Emax: U2OS, in relation to Emax of corrector lumacaftor (=100%), arithmetic mean values

Chain of human F508del-CFTR (P13569 with tags, fused parts or gaps DEL508-508): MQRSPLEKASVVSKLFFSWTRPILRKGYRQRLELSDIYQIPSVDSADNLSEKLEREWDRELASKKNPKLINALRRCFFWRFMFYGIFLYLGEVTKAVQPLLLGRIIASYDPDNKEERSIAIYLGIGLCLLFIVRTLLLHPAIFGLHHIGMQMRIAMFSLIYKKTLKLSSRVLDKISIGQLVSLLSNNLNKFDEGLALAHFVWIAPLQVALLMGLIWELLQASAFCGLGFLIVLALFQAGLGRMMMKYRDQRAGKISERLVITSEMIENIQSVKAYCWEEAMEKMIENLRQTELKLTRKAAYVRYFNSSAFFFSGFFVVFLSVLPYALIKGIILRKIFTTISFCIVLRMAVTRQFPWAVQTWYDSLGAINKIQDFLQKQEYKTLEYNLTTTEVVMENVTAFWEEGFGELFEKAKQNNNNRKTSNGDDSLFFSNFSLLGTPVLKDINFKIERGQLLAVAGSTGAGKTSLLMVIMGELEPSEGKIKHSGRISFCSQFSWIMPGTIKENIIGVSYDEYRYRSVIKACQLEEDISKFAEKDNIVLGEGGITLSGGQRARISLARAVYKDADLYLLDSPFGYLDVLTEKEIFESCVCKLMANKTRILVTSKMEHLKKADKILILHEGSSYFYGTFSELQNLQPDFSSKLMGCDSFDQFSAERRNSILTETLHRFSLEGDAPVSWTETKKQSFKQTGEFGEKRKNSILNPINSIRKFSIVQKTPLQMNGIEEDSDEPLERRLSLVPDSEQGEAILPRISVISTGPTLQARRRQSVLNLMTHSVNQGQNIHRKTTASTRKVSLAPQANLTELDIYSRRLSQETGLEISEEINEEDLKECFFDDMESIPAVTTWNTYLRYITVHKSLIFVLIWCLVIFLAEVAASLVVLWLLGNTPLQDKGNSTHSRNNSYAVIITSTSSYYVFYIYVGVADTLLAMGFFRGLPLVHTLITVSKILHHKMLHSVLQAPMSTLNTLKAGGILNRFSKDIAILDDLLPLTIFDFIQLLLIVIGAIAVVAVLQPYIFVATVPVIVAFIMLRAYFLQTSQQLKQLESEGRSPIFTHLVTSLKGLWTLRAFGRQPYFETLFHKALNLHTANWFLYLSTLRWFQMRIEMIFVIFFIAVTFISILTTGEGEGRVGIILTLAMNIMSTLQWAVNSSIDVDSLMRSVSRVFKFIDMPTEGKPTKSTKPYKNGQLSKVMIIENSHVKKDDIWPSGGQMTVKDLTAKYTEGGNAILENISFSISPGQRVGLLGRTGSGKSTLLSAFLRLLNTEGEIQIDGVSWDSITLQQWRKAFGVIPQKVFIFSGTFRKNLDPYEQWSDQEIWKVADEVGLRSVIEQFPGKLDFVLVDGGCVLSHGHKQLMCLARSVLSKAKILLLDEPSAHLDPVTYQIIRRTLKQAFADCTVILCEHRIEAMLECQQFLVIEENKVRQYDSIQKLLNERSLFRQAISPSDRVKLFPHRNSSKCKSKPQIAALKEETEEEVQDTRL

Question: For CC(C)C[C@H]1C(=O)N2CC[C@@H](c3ccccc3)C[C@H]2C(=O)N[C@H](Cc2ccccc2)COc2cnc3ccccc3c2C(=O)N[C@H](C(=O)NCCc2cc(C3CC3)no2)CC(=O)N1C [Example 675, (9S,13S,19aS,22R)-22-benzyl-N-(2-(3-cyclopropylisoxazol-5-yl)ethyl)-13-isobutyl-12-methyl-7,11,14,20-tetraoxo-18-phenyl-7,8,9,10,11,12,13,14,17,18,19,19a,20,21,22,23-hexadecahydro-16H-pyrido[2′,1′:6,7][1]oxa[4,7,10,14]tetraazacycloheptadecino[17,16-c]quinoline-9-carboxamide], which EC50 is on record?
Answer: 194 nM

Question: And the Emax?
Answer: 159%

Question: How did the EC50 turn out when CC(C)C[C@H]1C(=O)N2CC[C@@H](c3ccccc3)C[C@@H]2C(=O)N[C@H](Cc2ccccc2)COc2cnc3ccccc3c2C(=O)N[C@H](C(=O)NCCc2cc(C3CC3)no2)CC(=O)N1C [Example 676, (9S,13S,19aR,22R)-22-benzyl-N-(2-(3-cyclopropylisoxazol-5-yl)ethyl)-13-isobutyl-12-methyl-7,11,14,20-tetraoxo-18-phenyl-7,8,9,10,11,12,13,14,17,18,19,19a,20,21,22,23-hexadecahydro-16H-pyrido[2′,11:6,7][1]oxa[4,7,10,14]tetraazacycloheptadecino[17,16-c]quinoline-9-carboxamide] was run?
Answer: 62 nM

Question: What about the Emax of the same molecule?
Answer: 267%

Question: Which results are given for CC(C)C[C@H]1C(=O)N2CC[C@H](c3ccccc3)C[C@@H]2C(=O)N[C@H](Cc2ccccc2)COc2cnc3ccccc3c2C(=O)N[C@H](C(=O)NCCc2cc(C3CC3)no2)CC(=O)N1C [Example 677, (9S,13S,19aR,22R)-22-benzyl-N-(2-(3-cyclopropylisoxazol-5-yl)ethyl)-13-isobutyl-12-methyl-7,11,14,20-tetraoxo-18-phenyl-7,8,9,10,11,12,13,14,17,18,19,19a,20,21,22,23-hexadecahydro-16H-pyrido[2′,1′:6,7][1]oxa[4,7,10,14]tetraazacycloheptadecino[17,16-c]quinoline-9-carboxamide]?
Answer: EC50: 37 nM; Emax: 283%

Question: How did the EC50 turn out when COc1nccc2c1C(=O)N[C@H](C(=O)NCCc1cc(C)no1)CC(=O)N(C)[C@@H](CC(C)C)C(=O)N1Cc3ccccc3C[C@@H]1C(=O)N[C@H](Cc1ccccc1)CO2 [Example 678, (7S,11S,19aR,22R)-22-benzyl-11-isobutyl-4-methoxy-10-methyl-N-(2-(3-methylisoxazol-5-yl)ethyl)-5,9,12,20-tetraoxo-5,6,7,8,9,10,11,12,19,19a,20,21,22,23-tetradecahydro-14H-pyrido[3′,4′:16,17][1]oxa[4,7,10,14]tetraazacycloheptadecino[7,6-b]isoquinoline-7-carboxamide] was run?
Answer: 355 nM

Question: What about the Emax of the same molecule?
Answer: 296%

Question: How did the EC50 turn out when COc1nccc2c1C(=O)N[C@H](C(=O)NCCc1cc(C)no1)CC(=O)N(C)[C@@H](CC(C)C)C(=O)N1CCc3ccccc3[C@@H]1C(=O)N[C@H](Cc1ccccc1)CO2 [Example 679, (7S,11S,19bR,22R)-22-benzyl-11-isobutyl-4-methoxy-10-methyl-N-(2-(3-methylisoxazol-5-yl)ethyl)-5,9,12,20-tetraoxo-5,6,7,8,9,10,11,12,15,19b,20,21,22,23-tetradecahydro-14H-pyrido[3′,4′:16,17][1]oxa[4,7,10,14]tetraazacycloheptadecino[6,7-a]isoquinoline-7-carboxamide] was run?
Answer: 869 nM

Question: And the Emax?
Answer: 277%

Question: For COc1cccc(CCNC(=O)[C@@H]2CC(=O)N(C)[C@@H](CC(C)C)C(=O)N(C)[C@H](C)C(=O)N[C@H](Cc3ccccc3)COc3cnc4ccccc4c3C(=O)N2)c1 [Example 680, (3S,7S,10R,13R)-13-benzyl-7-isobutyl-N-(3-methoxyphenethyl)-6,9,10-trimethyl-1,5,8,11-tetraoxo-1,2,3,4,5,6,7,8,9,10,11,12,13,14-tetradecahydro-[1]oxa[4,7,10,14]tetraazacycloheptadecino[17,16-c]quinoline-3-carboxamide], which EC50 is on record?
Answer: 448 nM

Question: What about the Emax of the same molecule?
Answer: 340%

Question: Which results are given for COc1nccc2c1C(=O)N[C@H](C(=O)NCCc1noc(C3CC3)n1)CC(=O)N(C)[C@@H](CC(C)C)C(=O)N(C)[C@H](c1ccccc1)C(=O)N[C@H](Cc1ccccc1)CO2 [Example 681, (3R,6R,9S,13S)-3-benzyl-N-(2-(5-cyclopropyl-1,2,4-oxadiazol-3-yl)ethyl)-9-isobutyl-16-methoxy-7,10-dimethyl-5,8,11,15-tetraoxo-6-phenyl-2,3,4,5,6,7,8,9,10,11,12,13,14,15-tetradecahydropyrido[3,4-p][1]oxa[4,7,10,14]tetraazacycloheptadecine-13-carboxamide]?
Answer: EC50: 447 nM; Emax: 313%

Question: For COc1nccc2c1C(=O)N[C@H](C(=O)NCCc1cc(C3CC3)on1)CC(=O)N(C)[C@@H](CC(C)C)C(=O)N(C)[C@H](CC1CCC(F)(F)CC1)C(=O)N[C@H](Cc1ccccc1)CO2 [Example 682, (3R,6R,9S,13S)-3-benzyl-N-(2-(5-cyclopropylisoxazol-3-yl)ethyl)-6-((4,4-difluorocyclohexyl)methyl)-9-isobutyl-16-methoxy-7,10-dimethyl-5,8,11,15-tetraoxo-2,3,4,5,6,7,8,9,10,11,12,13,14,15-tetradecahydropyrido[3,4-p][1]oxa[4,7,10,14]tetraazacycloheptadecine-13-carboxamide], which EC50 is on record?
Answer: 110 nM

Question: And the Emax?
Answer: 351%

Question: Which EC50 does the source give for COc1nc(C)cc2c1C(=O)N[C@H](C(=O)NCCc1cc(C)no1)CC(=O)N(C)[C@@H](CC(C)C)C(=O)N1CCC3(CC3)C[C@@H]1C(=O)N[C@H](Cc1ccccc1)CO2 [Example 683, (7′S,11′S,17a′R,20′R)-20′-benzyl-11′-isobutyl-4′-methoxy-2′,10′-dimethyl-N-(2-(3-methylisoxazol-5-yl)ethyl)-5′,9′,12′,18′-tetraoxo-5′,6′,7′,8′,9′,10′,11′,12′,14′,15′,17′,17a′,18′,19′,20′,21′-hexadecahydrospiro[cyclopropane-1,16′-dipyrido[2,1-f:3′,4′-p][1]oxa[4,7,10,14]tetraazacycloheptadecine]-7′-carboxamide] here?
Answer: 362 nM

Question: And the Emax?
Answer: 262%

Question: With COc1cc(CCNC(=O)[C@@H]2CC(=O)N(C)[C@@H](CC(C)C)C(=O)N3CCC4(CC4)C[C@H]3C(=O)N[C@H](Cc3ccccc3)COc3cc(C)nc(OC)c3C(=O)N2)on1 [Example 684, (7′S,11′S,17a′S,20′R)-20′-benzyl-11′-isobutyl-4′-methoxy-N-(2-(3-methoxyisoxazol-5-yl)ethyl)-2′,10′-dimethyl-5′,9′,12′,18′-tetraoxo-5′,6′,7′,8′,9′,10′,11′,12′,14′,15′,17′,17a′,18′,19′,20′,21′-hexadecahydrospiro[cyclopropane-1,16′-dipyrido[2,1-f:3′,4′-p][1]oxa[4,7,10,14]tetraazacycloheptadecine]-7′-carboxamide] as the molecule, how does the EC50 read?
Answer: 986 nM

Question: What about the Emax of the same molecule?
Answer: 235%

Question: For [2H]C([2H])([2H])Oc1nc(C)cc2c1C(=O)N[C@H](C(=O)NCCc1cnn(C3CC3)n1)CC(=O)N(C)[C@@H](CC(C)C)C(=O)N1CCCC[C@@H]1C(=O)N[C@H](Cc1ccccc1)CO2 [Example 685, (7S,11S,17aR,20R)-20-benzyl-N-(2-(2-cyclopropyl-2H-1,2,3-triazol-4-yl)ethyl)-11-isobutyl-4-(methoxy-d3)-], which EC50 is on record?
Answer: 500 nM

Question: What about the Emax of the same molecule?
Answer: 234%
